Test system: Metabolism protein genes
Test: DNA chip mRNA expression in yeast, metabolism protein genes (Table 7)
Format: cell-based, Saccharomyces cerevisiae S288C
How it was run: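 Untreated cultures served as reference for log-phase S288C yeast given a growth-inhibiting, non-lethal toxicant dose for 2 h at 25° C. in YPD. Gene expression was measured on a whole-genome DNA chip from Cy3/Cy5-labeled cDNA.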

CCCCC[C@H](O)CC(=O)CCc1ccc(O)c(OC)c1 [(13), gingerol]
The level of expressed mRNA in the presence of chemical substance/The level of expressed mRNA in the absence of chemical substance (yeast gene YAL012W): 1.1 | The level of expressed mRNA in the presence of chemical substance/The level of expressed mRNA in the absence of chemical substance (yeast gene YAL038W): 1.8 | The level of expressed mRNA in the presence of chemical substance/The level of expressed mRNA in the absence of chemical substance (yeast gene YAL044C): 1.1 | The level of expressed mRNA in the presence of chemical substance/The level of expressed mRNA in the absence of chemical substance (yeast gene YAL054C): 1.8 | The level of expressed mRNA in the presence of chemical substance/The level of expressed mRNA in the absence of chemical substance (yeast gene YAR071W): 0.3 | The level of expressed mRNA in the presence of chemical substance/The level of expressed mRNA in the absence of chemical substance (yeast gene YBL001C): 1.0 | level of expressed mRNA in the presence/in the absence of chemical substance (yeast gene YBR003W): 1.2 | level of expressed mRNA in the presence/in the absence of chemical substance (yeast gene YBR011C): 1.5 | The level of expressed mRNA in the presence of chemical substance/The level of expressed mRNA in the absence of chemical substance (yeast gene YBR014C): 0.9 | level of expressed mRNA in the presence/in the absence of chemical substance (yeast gene YBR020W): 1.1 | The level of expressed mRNA in the presence of chemical substance/The level of expressed mRNA in the absence of chemical substance (yeast gene YBR023C): 0.5 | The level of expressed mRNA in the presence of chemical substance/The level of expressed mRNA in the absence of chemical substance (yeast gene YBR029C): 1.7 | The level of expressed mRNA in the presence of chemical substance/The level of expressed mRNA in the absence of chemical substance (yeast gene YBR035C): 1.8 | The level of expressed mRNA in the presence of chemical substance/The level of expressed mRNA in the absence of chemical substance (yeast gene YBR068C): 2.2 | The level of expressed mRNA in the presence of chemical substance/The level of expressed mRNA in the absence of chemical substance (yeast gene YBR111C): 1.6 | The level of expressed mRNA in the presence of chemical substance/The level of expressed mRNA in the absence of chemical substance (yeast gene YBR183W): 1.4 | The level of expressed mRNA in the presence of chemical substance/The level of expressed mRNA in the absence of chemical substance (yeast gene YBR222C): 1.6 | The level of expressed mRNA in the presence of chemical substance/The level of expressed mRNA in the absence of chemical substance (yeast gene YBR256C): 3.5 | The level of expressed mRNA in the presence of chemical substance/The level of expressed mRNA in the absence of chemical substance (yeast gene YBR296C): 2.0 | The level of expressed mRNA in the presence of chemical substance/The level of expressed mRNA in the absence of chemical substance (yeast gene YCL009C): 1.6 | The level of expressed mRNA in the presence of chemical substance/The level of expressed mRNA in the absence of chemical substance (yeast gene YCL064C): 1.6 | level of expressed mRNA in the presence/in the absence of chemical substance (yeast gene YCR010C): 1.0 | level of expressed mRNA in the presence/in the absence of chemical substance (yeast gene YCR034W): 0.2 | The level of expressed mRNA in the presence of chemical substance/The level of expressed mRNA in the absence of chemical substance (yeast gene YCR037C): 1.3 | The level of expressed mRNA in the presence of chemical substance/The level of expressed mRNA in the absence of chemical substance (yeast gene YCR048W): 1.3 | The level of expressed mRNA in the presence of chemical substance/The level of expressed mRNA in the absence of chemical substance (yeast gene YCR098C): 1.4 | The level of expressed mRNA in the presence of chemical substance/The level of expressed mRNA in the absence of chemical substance (yeast gene YDL021W): 5.3 | The level of expressed mRNA in the presence of chemical substance/The level of expressed mRNA in the absence of chemical substance (yeast gene YDL022W): 1.5 | The level of expressed mRNA in the presence of chemical substance/The level of expressed mRNA in the absence of chemical substance (yeast gene YDR009W): 1.2 | The level of expressed mRNA in the presence of chemical substance/The level of expressed mRNA in the absence of chemical substance (yeast gene YDR019C): 1.0 | level of expressed mRNA in the presence/in the absence of chemical substance (yeast gene YDR050C): 2.0 | level of expressed mRNA in the presence/in the absence of chemical substance (yeast gene YDR073W): 0.6 | level of expressed mRNA in the presence/in the absence of chemical substance (yeast gene YDR123C): 0.9 | level of expressed mRNA in the presence/in the absence of chemical substance (yeast gene YDR178W): 1.5 | level of expressed mRNA in the presence/in the absence of chemical substance (yeast gene YDR277C): 1.2 | level of expressed mRNA in the presence/in the absence of chemical substance (yeast gene YDR284C): 1.2 | level of expressed mRNA in the presence/in the absence of chemical substance (yeast gene YDR345C): 1.2 | level of expressed mRNA in the presence/in the absence of chemical substance (yeast gene YDR400W): 0.7 | level of expressed mRNA in the presence/in the absence of chemical substance (yeast gene YDR408C): 0.5 | The level of expressed mRNA in the presence of chemical substance/The level of expressed mRNA in the absence of chemical substance (yeast gene YDR410C): 1.2 | level of expressed mRNA in the presence/in the absence of chemical substance (yeast gene YDR483W): 1.3 | The level of expressed mRNA in the presence of chemical substance/The level of expressed mRNA in the absence of chemical substance (yeast gene YDR487C): 1.5 | The level of expressed mRNA in the presence of chemical substance/The level of expressed mRNA in the absence of chemical substance (yeast gene YDR502C): 1.2 | The level of expressed mRNA in the presence of chemical substance/The level of expressed mRNA in the absence of chemical substance (yeast gene YDR516C): 2.5 | The level of expressed mRNA in the presence of chemical substance/The level of expressed mRNA in the absence of chemical substance (yeast gene YEL011W): 1.5 | level of expressed mRNA in the presence/in the absence of chemical substance (yeast gene YEL063C): 1.1 | level of expressed mRNA in the presence/in the absence of chemical substance (yeast gene YER015W): 0.8 | The level of expressed mRNA in the presence of chemical substance/The level of expressed mRNA in the absence of chemical substance (yeast gene YER026C): 1.9 | The level of expressed mRNA in the presence of chemical substance/The level of expressed mRNA in the absence of chemical substance (yeast gene YER053C): 4.1 | The level of expressed mRNA in the presence of chemical substance/The level of expressed mRNA in the absence of chemical substance (yeast gene YER069W): 1.4 | level of expressed mRNA in the presence/in the absence of chemical substance (yeast gene YER081W): 0.6 | The level of expressed mRNA in the presence of chemical substance/The level of expressed mRNA in the absence of chemical substance (yeast gene YER096W): 2.3 | level of expressed mRNA in the presence/in the absence of chemical substance (yeast gene YER120W): 1.0 | The level of expressed mRNA in the presence of chemical substance/The level of expressed mRNA in the absence of chemical substance (yeast gene YER178W): 2.4 | level of expressed mRNA in the presence/in the absence of chemical substance (yeast gene YFL011W): 0.8 | The level of expressed mRNA in the presence of chemical substance/The level of expressed mRNA in the absence of chemical substance (yeast gene YFL030W): 2.2 | The level of expressed mRNA in the presence of chemical substance/The level of expressed mRNA in the absence of chemical substance (yeast gene YFL031W): 2.6 | The level of expressed mRNA in the presence of chemical substance/The level of expressed mRNA in the absence of chemical substance (yeast gene YFL056C): 4.7 | The level of expressed mRNA in the presence of chemical substance/The level of expressed mRNA in the absence of chemical substance (yeast gene YFL057C): 4.1 | level of expressed mRNA in the presence/in the absence of chemical substance (yeast gene YGL012W): 0.3 | The level of expressed mRNA in the presence of chemical substance/The level of expressed mRNA in the absence of chemical substance (yeast gene YGL022W): 1.0 | level of expressed mRNA in the presence/in the absence of chemical substance (yeast gene YGL115W): 0.7 | The level of expressed mRNA in the presence of chemical substance/The level of expressed mRNA in the absence of chemical substance (yeast gene YGL184C): 7.4 | level of expressed mRNA in the presence/in the absence of chemical substance (yeast gene YGL205W): 1.0 | The level of expressed mRNA in the presence of chemical substance/The level of expressed mRNA in the absence of chemical substance (yeast gene YGL209W): 1.9 | The level of expressed mRNA in the presence of chemical substance/The level of expressed mRNA in the absence of chemical substance (yeast gene YGL248W): 2.0 | The level of expressed mRNA in the presence of chemical substance/The level of expressed mRNA in the absence of chemical substance (yeast gene YGR055W): 1.9 | level of expressed mRNA in the presence/in the absence of chemical substance (yeast gene YGR096W): 1.1 | level of expressed mRNA in the presence/in the absence of chemical substance (yeast gene YGR191W): 1.0 | The level of expressed mRNA in the presence of chemical substance/The level of expressed mRNA in the absence of chemical substance (yeast gene YGR194C): 2.2 | level of expressed mRNA in the presence/in the absence of chemical substance (yeast gene YGR204W): 1.3 | The level of expressed mRNA in the presence of chemical substance/The level of expressed mRNA in the absence of chemical substance (yeast gene YGR282C): 1.2 | level of expressed mRNA in the presence/in the absence of chemical substance (yeast gene YGR288W): 1.3 | level of expressed mRNA in the presence/in the absence of chemical substance (yeast gene YHR025W): 0.7 | The level of expressed mRNA in the presence of chemical substance/The level of expressed mRNA in the absence of chemical substance (yeast gene YHR111W): 2.2 | level of expressed mRNA in the presence/in the absence of chemical substance (yeast gene YHR123W): 1.5 | The level of expressed mRNA in the presence of chemical substance/The level of expressed mRNA in the absence of chemical substance (yeast gene YHR137W): 0.6 | The level of expressed mRNA in the presence of chemical substance/The level of expressed mRNA in the absence of chemical substance (yeast gene YHR176W): 1.9 | level of expressed mRNA in the presence/in the absence of chemical substance (yeast gene YHR210C): 0.4 | level of expressed mRNA in the presence/in the absence of chemical substance (yeast gene YIL006W): 0.8 | The level of expressed mRNA in the presence of chemical substance/The level of expressed mRNA in the absence of chemical substance (yeast gene YIL045W): 2.0 | The level of expressed mRNA in the presence of chemical substance/The level of expressed mRNA in the absence of chemical substance (yeast gene YIL107C): 1.9 | The level of expressed mRNA in the presence of chemical substance/The level of expressed mRNA in the absence of chemical substance (yeast gene YIL154C): 1.7 | The level of expressed mRNA in the presence of chemical substance/The level of expressed mRNA in the absence of chemical substance (yeast gene YIL155C): 2.0 | The level of expressed mRNA in the presence of chemical substance/The level of expressed mRNA in the absence of chemical substance (yeast gene YIL167W): 1.2 | The level of expressed mRNA in the presence of chemical substance/The level of expressed mRNA in the absence of chemical substance (yeast gene YIR034C): 2.6 | The level of expressed mRNA in the presence of chemical substance/The level of expressed mRNA in the absence of chemical substance (yeast gene YIR036C): 1.9 | The level of expressed mRNA in the presence of chemical substance/The level of expressed mRNA in the absence of chemical substance (yeast gene YJL031C): 2.6 | The level of expressed mRNA in the presence of chemical substance/The level of expressed mRNA in the absence of chemical substance (yeast gene YJL068C): 2.7 | The level of expressed mRNA in the presence of chemical substance/The level of expressed mRNA in the absence of chemical substance (yeast gene YJL088W): 1.0

From patent US8192962B2, “Processes for detecting toxic substances” (Daikin Industries, Ltd., priority 2001, dated 2012)
